Patent US20230022400A1, “IMMUNOMODULATORS” (Bristol-Myers Squibb Company, priority 2019, published 2023)
Where a SMILES comes first, the peptide text is derived from it. Bridges are numbered along the chain shown (N, C = ends). [ ]: non-standard residue; d: D form. The star is where a group is joined. Trp(1-CH2CO2Me) = COC(=O)Cn1cc(C[C@H](N)C(=O)O)c2ccccc21; Trp(1-CH2COOH) = N[C@@H](Cc1cn(CC(=O)O)c2ccccc12)C(=O)O; X7 = Cc1ccc(-n2c3ccccc3c3c(*)nc(C)nc32)nc1; Hyp = O=C(O)[C@@H]1C[C@@H](O)CN1; X5 = c1ccc2c(c1)oc1c(*)ncnc12; NMeNle = CCCC[C@H](NC)C(=O)O; X4 = c1nc(*)c2c3c(sc2n1)CCC3; NMeA = CN[C@@H](C)C(=O)O; X14 = Clc1cccc2sc(*)nc12; Dab = NCC[C@H](N)C(=O)O; Dap = NC[C@H](N)C(=O)O; X1 = c1ccc2sc(*)nc2c1; X11 = COc1ccnc(*)n1; X12 = Brc1cnc(*)nc1

Target: T1, PD-1/PD-L1 interaction (PD-1-Ig / PD-L1-His) (Homo sapiens, UniProt Q9NZQ7)
T1 construct: TVMV protease site (linker) (C); made in house; host or cells: HEK293T cells
T1 sequence (Q9NZQ7 18-239): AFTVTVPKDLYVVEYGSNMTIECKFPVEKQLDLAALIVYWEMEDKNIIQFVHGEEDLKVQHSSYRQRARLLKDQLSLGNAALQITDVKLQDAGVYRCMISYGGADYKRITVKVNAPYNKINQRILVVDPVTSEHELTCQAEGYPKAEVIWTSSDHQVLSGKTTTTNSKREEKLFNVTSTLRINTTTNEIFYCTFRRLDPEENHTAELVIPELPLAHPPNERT
Assay: PD-1/PD-L1 Homogenous Time-Resolved Fluorescence (HTRF) binding assay
Conditions: PD-L1-His 10 nM final, PD-1-Ig 20 nM final; inhibitors pre-incubated with PD-L1-His for 15 m
From the text: The ability of the compounds of formula (I) to bind to PD-L1 was investigated using a PD-1/PD-L1 Homogenous Time-Resolved Fluorescence (HTRF) binding assay.
The interaction of PD-1 and PD-L1 can be assessed using soluble, purified preparations of the extracellular domains of the two proteins. The PD-1 and PD-L1 protein extracellular domains were expressed as fusion proteins with detection tags, for PD-1, the tag was the Fc portion of Immunoglobulin (PD-1-Ig) and for PD-L1 it was the 6 histidine motif (PD-L1-His). All binding studies were performed in an HTRF assay buffer consisting of dPBS supplemented with 0.1% […] bovine serum albumin and 0.05% (v/v) Tween-20. For the h/PD-L1-His binding assay, inhibitors were pre-incubated with PD-L1-His (10 nM final) for 15 m in 4 μl of assay buffer, followed by addition of PD-1-Ig (20 nM final) in 1 μl of assay buffer and further incubation for 15 m. HTRF detection was achieved using europium crypate-labeled anti-Ig (1 nM final) and allophycocyanin (APC) labeled anti-His (20 nM final). Antibodies were diluted in HTRF detection buffer and 5 μl was dispensed on top of the binding reaction. The reaction mixture was allowed to equilibrate for 30 minutes and the resulting signal (665 nm/620 nm ratio) was obtained using an EnVision fluorometer. Additional binding assays were established between the human proteins PD-1-Ig/PD-L2-His (20 & 5 nM, respectively) and CD80-His/PD-L1-Ig (100 & 10 nM, respectively).
Recombinant Proteins: Human PD-1 (25-167) with a C-terminal human Fc domain of immunoglobulin G (Ig) epitope tag [hPD-1 (25-167)-3S-IG] and human PD-L1 (18-239) with a C-terminal His epitope tag [hPD-L1(18-239)-TVMV-His] were expressed in HEK293T cells and purified sequentially by ProteinA affinity chromatography and size exclusion chromatography. Human PD-L2-His and CD80-His was obtained through commercial sources.
Table 1 lists the IC50 values for representative examples of this disclosure measured in the PD-1/PD-L1 Homogenous Time-Resolved Fluorescence (HTRF) binding assay.

Structure (SMILES)	IC50 [nM]
CCCC[C@H]1C(=O)N(C)[C@@H](CCCC)C(=O)N[C@@H](CC(C)C)C(=O)N[C@H](C(=O)NCC(N)=O)CSCC(=O)N[C@@H](Cc2ccc(O)cc2)C(=O)N(C)[C@@H](C)C(=O)N[C@@H](CC(N)=O)C(=O)N2CCC[C@H]2C(=O)N[C@@H](CNc2nc3c(Cl)cccc3s2)C(=O)N[C@@H](CC(C)C)C(=O)N2C[C@H](O)C[C@H]2C(=O)N[C@@H](Cc2c[nH]c3ccccc23)C(=O)N[C@@H](CCNc2nc3c(Cl)cccc3s2)C(=O)N[C@@H](Cc2cn(CC(=O)O)c3ccccc23)C(=O)N1C [Compound 11006] ({CH2CO}-Y[NMeA]NP[Dap](X14)L[Hyp]W[Dab](X14)[Trp(1-CH2COOH)][NMeNle][NMeNle]LCG-NH2; thioether N-14)	7.9
CCCC[C@H]1C(=O)N(C)[C@@H](CCCC)C(=O)N[C@@H](CC(C)C)C(=O)N[C@H](C(=O)NCC(N)=O)CSCC(=O)N[C@@H](Cc2ccc(O)cc2)C(=O)N(C)[C@@H](C)C(=O)N[C@@H](CC(N)=O)C(=O)N2CCC[C@H]2C(=O)N[C@@H](CNc2nc(C)nc3c2c2ccccc2n3-c2ccc(C)cn2)C(=O)N[C@@H](CC(C)C)C(=O)N2C[C@H](O)C[C@H]2C(=O)N[C@@H](Cc2c[nH]c3ccccc23)C(=O)N[C@@H](CCN)C(=O)N[C@@H](Cc2cn(CC(=O)O)c3ccccc23)C(=O)N1C [Compound 21005] ({CH2CO}-Y[NMeA]NP[Dap](X7)L[Hyp]W[Dab][Trp(1-CH2COOH)][NMeNle][NMeNle]LCG-NH2; thioether N-14)	25
CCCC[C@H]1C(=O)N(C)[C@@H](CCCC)C(=O)N[C@@H](CC(C)C)C(=O)N[C@H](C(=O)NCC(N)=O)CSCC(=O)N[C@@H](Cc2ccc(O)cc2)C(=O)N(C)[C@@H](C)C(=O)N[C@@H](CC(N)=O)C(=O)N2CCC[C@H]2C(=O)N[C@@H](CNc2nc3ccccc3s2)C(=O)N[C@@H](CC(C)C)C(=O)N2C[C@H](O)C[C@H]2C(=O)N[C@@H](Cc2c[nH]c3ccccc23)C(=O)N[C@@H](CCN)C(=O)N[C@@H](Cc2cn(CC(=O)OC)c3ccccc23)C(=O)N1C [Compound 11004] ({CH2CO}-Y[NMeA]NP[Dap](X1)L[Hyp]W[Dab][Trp(1-CH2CO2Me)][NMeNle][NMeNle]LCG-NH2; thioether N-14)	5.6
CCCC[C@H]1C(=O)N(C)[C@@H](CCCC)C(=O)N[C@@H](CC(C)C)C(=O)N[C@H](C(=O)NCC(N)=O)CSCC(=O)N[C@@H](Cc2ccc(O)cc2)C(=O)N(C)[C@@H](C)C(=O)N[C@@H](CC(N)=O)C(=O)N2CCC[C@H]2C(=O)N[C@@H](CNc2nc3ccccc3s2)C(=O)N[C@@H](CC(C)C)C(=O)N2C[C@H](O)C[C@H]2C(=O)N[C@@H](Cc2c[nH]c3ccccc23)C(=O)N[C@@H](CCNc2nc3ccccc3s2)C(=O)N[C@@H](Cc2cn(CC(=O)OC)c3ccccc23)C(=O)N1C [Compound 12001] ({CH2CO}-Y[NMeA]NP[Dap](X1)L[Hyp]W[Dab](X1)[Trp(1-CH2CO2Me)][NMeNle][NMeNle]LCG-NH2; thioether N-14)	138
CCCC[C@H]1C(=O)N(C)[C@@H](CCCC)C(=O)N[C@@H](CC(C)C)C(=O)N[C@H](C(=O)NCC(N)=O)CSCC(=O)N[C@@H](Cc2ccc(O)cc2)C(=O)N(C)[C@@H](C)C(=O)N[C@@H](CC(N)=O)C(=O)N2CCC[C@H]2C(=O)N[C@@H](CNc2nccc(OC)n2)C(=O)N[C@@H](CC(C)C)C(=O)N2C[C@H](O)C[C@H]2C(=O)N[C@@H](Cc2c[nH]c3ccccc23)C(=O)N[C@@H](CCN)C(=O)N[C@@H](Cc2cn(CC(=O)O)c3ccccc23)C(=O)N1C [Compound 1001] ({CH2CO}-Y[NMeA]NP[Dap](X11)L[Hyp]W[Dab][Trp(1-CH2COOH)][NMeNle][NMeNle]LCG-NH2; thioether N-14)	5.4

Now those with a lower IC50, led by results:

IC50 [nM]	Structure (SMILES)
3.9	CCCC[C@H]1C(=O)N(C)[C@@H](CCCC)C(=O)N[C@@H](CC(C)C)C(=O)N[C@H](C(=O)NCC(N)=O)CSCC(=O)N[C@@H](Cc2ccc(O)cc2)C(=O)N(C)[C@@H](C)C(=O)N[C@@H](CC(N)=O)C(=O)N2CCC[C@H]2C(=O)N[C@@H](CNc2ncnc3c2oc2ccccc23)C(=O)N[C@@H](CC(C)C)C(=O)N2C[C@H](O)C[C@H]2C(=O)N[C@@H](Cc2c[nH]c3ccccc23)C(=O)N[C@@H](CCNc2ncnc3c2oc2ccccc23)C(=O)N[C@@H](Cc2cn(CC(=O)O)c3ccccc23)C(=O)N1C [Compound 21010] ({CH2CO}-Y[NMeA]NP[Dap](X5)L[Hyp]W[Dab](X5)[Trp(1-CH2COOH)][NMeNle][NMeNle]LCG-NH2; thioether N-14)
4.5	CCCC[C@H]1C(=O)N(C)[C@@H](CCCC)C(=O)N[C@@H](CC(C)C)C(=O)N[C@H](C(=O)NCC(N)=O)CSCC(=O)N[C@@H](Cc2ccc(O)cc2)C(=O)N(C)[C@@H](C)C(=O)N[C@@H](CC(N)=O)C(=O)N2CCC[C@H]2C(=O)N[C@@H](CNc2nc3ccccc3s2)C(=O)N[C@@H](CC(C)C)C(=O)N2C[C@H](O)C[C@H]2C(=O)N[C@@H](Cc2c[nH]c3ccccc23)C(=O)N[C@@H](CCNc2nc3ccccc3s2)C(=O)N[C@@H](Cc2cn(CC(=O)O)c3ccccc23)C(=O)N1C [Compound 11002] ({CH2CO}-Y[NMeA]NP[Dap](X1)L[Hyp]W[Dab](X1)[Trp(1-CH2COOH)][NMeNle][NMeNle]LCG-NH2; thioether N-14)
4	CCCC[C@H]1C(=O)N(C)[C@@H](CCCC)C(=O)N[C@@H](CC(C)C)C(=O)N[C@H](C(=O)NCC(N)=O)CSCC(=O)N[C@@H](Cc2ccc(O)cc2)C(=O)N(C)[C@@H](C)C(=O)N[C@@H](CC(N)=O)C(=O)N2CCC[C@H]2C(=O)N[C@@H](CNc2nc3ccccc3s2)C(=O)N[C@@H](CC(C)C)C(=O)N2C[C@H](O)C[C@H]2C(=O)N[C@@H](Cc2c[nH]c3ccccc23)C(=O)N[C@@H](CCN)C(=O)N[C@@H](Cc2cn(CC(=O)O)c3ccccc23)C(=O)N1C [Compound 11001] ({CH2CO}-Y[NMeA]NP[Dap](X1)L[Hyp]W[Dab][Trp(1-CH2COOH)][NMeNle][NMeNle]LCG-NH2; thioether N-14)
2.6	CCCC[C@H]1C(=O)N(C)[C@@H](CCCC)C(=O)N[C@@H](CC(C)C)C(=O)N[C@H](C(=O)NCC(N)=O)CSCC(=O)N[C@@H](Cc2ccc(O)cc2)C(=O)N(C)[C@@H](C)C(=O)N[C@@H](CC(N)=O)C(=O)N2CCC[C@H]2C(=O)N[C@@H](CNc2ncnc3sc4c(c23)CCC4)C(=O)N[C@@H](CC(C)C)C(=O)N2C[C@H](O)C[C@H]2C(=O)N[C@@H](Cc2c[nH]c3ccccc23)C(=O)N[C@@H](CCN)C(=O)N[C@@H](Cc2cn(CC(=O)O)c3ccccc23)C(=O)N1C [Compound 21011] ({CH2CO}-Y[NMeA]NP[Dap](X4)L[Hyp]W[Dab][Trp(1-CH2COOH)][NMeNle][NMeNle]LCG-NH2; thioether N-14)
4.9	CCCC[C@H]1C(=O)N(C)[C@@H](CCCC)C(=O)N[C@@H](CC(C)C)C(=O)N[C@H](C(=O)NCC(N)=O)CSCC(=O)N[C@@H](Cc2ccc(O)cc2)C(=O)N(C)[C@@H](C)C(=O)N[C@@H](CC(N)=O)C(=O)N2CCC[C@H]2C(=O)N[C@@H](CNc2ncc(Br)cn2)C(=O)N[C@@H](CC(C)C)C(=O)N2C[C@H](O)C[C@H]2C(=O)N[C@@H](Cc2c[nH]c3ccccc23)C(=O)N[C@@H](CCNc2ncc(Br)cn2)C(=O)N[C@@H](Cc2cn(CC(=O)O)c3ccccc23)C(=O)N1C [Compound 1010] ({CH2CO}-Y[NMeA]NP[Dap](X12)L[Hyp]W[Dab](X12)[Trp(1-CH2COOH)][NMeNle][NMeNle]LCG-NH2; thioether N-14)
